Reference: ChEMBL document CHEMBL5338722, “Optical-Controlled Kinetic Switch: Fine-Tuning of the Residence Time of an Antagonist Binding to the Vasopressin V2 Receptor in In Vitro, Ex Vivo, and In Vivo Models of ADPKD” (J Med Chem, 2023)
Calls of active or inactive are those of the source. The rule behind the calls is not given here.

Tests used:
[1] = molecular target: T1, Vasopressin V2 receptor (Homo sapiens, UniProt P30518); test: Displacement of conivaptan-red fluorescent probe from SNAP-tagged human vasopressin V2 receptor expressed in HEK293 cells compound pre-illuminated for 10 mins with light at 365 nm and further incubated for 1 hr by HTRF assay; type: cell-based
[2] = molecular target: T1, Vasopressin V2 receptor; test: Displacement of conivaptan-red fluorescent probe from SNAP-tagged human vasopressin V2 receptor expressed in HEK293 cells at 10 uM compound pre-illuminated for 10 mins with light at 435 nm and further incubated for 1 hr by HTRF assay relative to control; type: cell-based
[3] = molecular target: T1, Vasopressin V2 receptor; test: Displacement of conivaptan-red fluorescent probe from SNAP-tagged human vasopressin V2 receptor expressed in HEK293 cells compound pre-illuminated for 10 mins with light at 435 nm and further incubated for 1 hr by HTRF assay; type: cell-based
[4] = molecular target: T1, Vasopressin V2 receptor; test: Antagonist activity at human vasopressin V2 receptor expressed in CHO cells assessed as inhibition of vasopressin induced cAMP production at 10 times Ki preincubated for 30 mins followed by two consecutive washouts and irradiated with light at 435 nm during two washouts; type: functional, cell-based
[5] = molecular target: T1, Vasopressin V2 receptor; test: Displacement of conivaptan-red fluorescent probe from SNAP-tagged human vasopressin V2 receptor expressed in HEK293 cells assessed as on-rate constant at IC50 by TR-FRET based competition association assay; type: cell-based; conditions: filed as antagonist
[6] = molecular target: T1, Vasopressin V2 receptor; test: Displacement of conivaptan-red fluorescent probe from SNAP-tagged human vasopressin V2 receptor expressed in HEK293 cells assessed as residence time at IC50 by TR-FRET based competition association assay; type: cell-based; conditions: filed as antagonist
[7] = molecular target: T1, Vasopressin V2 receptor; test: Antagonist activity at human vasopressin V2 receptor expressed in CHO cells assessed as inhibition of vasopressin induced cAMP production at 10 times Ki preincubated for 30 mins followed by two consecutive washouts and irradiated with light at 365 nm during two washouts; type: functional, cell-based
[8] = molecular target: T1, Vasopressin V2 receptor; test: Displacement of conivaptan-red fluorescent probe from SNAP-tagged human vasopressin V2 receptor expressed in HEK293 cells assessed as off-rate constant at IC50 by TR-FRET based competition association assay; type: cell-based; conditions: filed as antagonist

T1 sequence (P30518 whole entry): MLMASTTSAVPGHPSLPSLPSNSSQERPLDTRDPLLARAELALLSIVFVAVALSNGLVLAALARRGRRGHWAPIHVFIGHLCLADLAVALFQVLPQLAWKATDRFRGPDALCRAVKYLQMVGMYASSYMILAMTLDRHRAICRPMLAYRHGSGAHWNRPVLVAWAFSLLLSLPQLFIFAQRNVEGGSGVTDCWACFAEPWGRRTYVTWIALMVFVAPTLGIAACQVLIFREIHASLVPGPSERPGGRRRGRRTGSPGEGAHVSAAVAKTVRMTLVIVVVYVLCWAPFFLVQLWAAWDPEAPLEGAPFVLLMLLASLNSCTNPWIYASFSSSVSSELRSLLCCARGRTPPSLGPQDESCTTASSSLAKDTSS

| Ki [1] | Ki [3] | SMILES | also measured |
| --- | --- | --- | --- |
| 5280 nM | – | O=C(c1ccc(/N=N\c2ccc(C(F)(F)F)cc2)cc1Cl)N1Cc2cccn2Cc2ccccc21 | – |
| – | 2180 nM | O=C(c1ccc(/N=N/c2cccc(-c3ccccc3)c2)cc1Cl)N1Cc2cccn2Cc2ccccc21 | – |
| 663 nM | – | O=C(c1ccc(/N=N\c2cccc(-c3ccccc3)c2)cc1Cl)N1Cc2cccn2Cc2ccccc21 | – |
| – | 589 nM | O=C(c1ccc(/N=N/c2ccc(C(F)(F)F)cc2)cc1Cl)N1Cc2cccn2Cc2ccccc21 | – |
| – | 577 nM | Cc1ccc(F)cc1/N=N/c1ccc(C(=O)N2Cc3cccn3Cc3ccccc32)c(Cl)c1 | – |

Second part, the compound before the results:

| SMILES | Ki [1] | Ki [3] | also measured |
| --- | --- | --- | --- |
| Cc1cccc(/N=N\c2ccc(C(=O)N3Cc4cccn4Cc4ccccc43)c(Cl)c2)c1 | 134 nM | – | – |
| O=C(c1ccc(/N=N/c2ccc(-c3ccccc3)cc2)cc1Cl)N1Cc2cccn2Cc2ccccc21 | – | – | inhibition [2]: 33% |
| O=C(c1ccc(/N=N\c2ccccc2)cc1Cl)N1Cc2cccn2Cc2ccccc21 | 93 nM | – | – |
| Cc1ccc(F)cc1C(=O)Nc1ccc(C(=O)N2Cc3cccn3Cc3ccccc32)c(Cl)c1 | – | – | inhibition [4]: inactive; K [5]: 4.6 10^7/M/min; TIME [6]: 0.3 h; inhibition [7]: inactive; K [8]: 0.06 min⁻¹ |
| Cc1ccc(F)cc1/N=N\c1ccc(C(=O)N2Cc3cccn3Cc3ccccc32)c(Cl)c1 | 1700 nM | – | – |
| Cc1ccccc1/N=N/c1ccc(C(=O)N2Cc3cccn3Cc3ccccc32)c(Cl)c1 | – | 432 nM | – |
